What was measured:
[1] = test system: type 1 diabetes mellitus (T1DM); experiment: ISLE-1: 26-week Phase 2b multicenter randomized double-blind non-inferiority trial, HDV-L vs LIS, multiple daily injections
Source text: ISLE-1 was a 26-week, Phase 2b, multicenter, randomized, double-blind, non-inferiority trial.
ISLE-1 was a 26-week, Phase 2b, multicenter, randomized, double-blind, trial in T1DM treated with multiple daily injections (MDI) of insulin.
Main inclusion criteria were: age ≥18 years; T1D for ≥12 months; A1c ≥7.0 ([…]) to ≤10.5% (≤91 mmol/mol); treated with insulins glargine or detemir for basal coverage. Main exclusion criteria were total insulin dose ≥1.5 IU/kg/day or NPH insulin as basal.
Prandial dosing of HDV-lispro or control lispro was 15 minutes prior to the meal, and basal insulins were administered either as a single daily dose or a divided twice per day dosing, every 12 hours.
Informed of −10% dilution, participants continued their current insulin parameters. Hypoglycemia was recorded on Case Report Forms (CRFs) based on subject diaries and SMBG records, subjectively investigator-judged as “mild,” “moderate,” “severe,” or “life threatening.” Blinded continuous glucose monitoring (CGM) (Dexcom G4) was used for 5-7 days to assess glucose at baseline, weeks 13 and 26. A1c, lipids, and liver enzymes were measured approximately monthly. Liver fat content MRIs were performed in a subset.
The intent to treat (ITT) population included all randomized subjects receiving at least one dose of study treatment. Safety analyses included all randomized subjects. […] Mean A1c change was analyzed using ANCOVA within intent-to-treat (ITT) cohort at each visit. Post hoc subgroup analyses (baseline A1c <8.5% vs ≥8.5%) were performed, this cut point corresponding to pre-specified randomization strata. Direct likelihood models were used for treatment arm A1c comparisons, % time <54 mg/dL, bolus insulin, and basal insulin within the two A1c subgroups. Poisson regression models adjusting for site as random effect compared “severe” hypoglycemia incidence rates within A1c groups, testing for baseline A1c by treatment group interaction. Event number/subject was truncated at 15, accounting for extreme outliers.

[2] = test system: adult Type 1 diabetes mellitus; experiment: Example 2 pump study: randomized double-blinded two-way crossover, HDV lispro vs lispro by insulin pump, CGM and mixed meal test; format: in vivo, human; details: baseline HbA1c 7.19; 3-week pump period; 7 subjects
Source text: A study was run comparing the efficacy of HDV lispro vs. lispro to treat adult Type 1 diabetes mellitus when administered by pump. The study involved 7 subjects and was a randomized, double-blinded two-way crossover study. The dosing duration was 3-week on standard insulin x 3-week on HDV-insulin with infusion via standard commercial insulin pumps, and a mixed meal test was employed; continuous glucose monitoring was achieved via blinded Dexcom G4 Platinum Continuous Glucose Monitor. The baseline HbA1c was 7.19, and the ending HbA1c was 7.21 (for the HDV group) and 7.08 (for the lispro group).

[3] = test system: adult Type 1 diabetes mellitus; experiment: Example 3: double-blinded randomized six-week parallel study, HDV lispro vs lispro, multiple daily injections, CGM; format: in vivo, human
Source text: A double-blinded, randomized study was run comparing the efficacy of HDV lispro vs. lispro to treat adult Type 1 diabetes mellitus. The study involved 43 (1:1) subjects (who were considered to be in good control, with HbA1c levels between 7-8%) and was a six-week parallel design study, with multiple daily injections. The baseline HbA1c was 7.35 (HDV group) and 7.39 (lispro group). The primary endpoint was a two-hour reduction in glucose time out of range.

Substance: insulin lispro
- treatment-related serious adverse events ([1]; 26 weeks): No treatment-related serious adverse events were reported
- Mean change in A1c baseline to Week 26 ([1]; all subjects, HDV-L n=118, LIS n=58): −0.16%
- change in A1c over time ([1]; baseline A1c <8.5%): little change
- time <54 mg/dL during Week 26 (median) ([1]; baseline A1c <8.5%, CGM, p=0.16): 0.6%
- CRF-reported incidence of "severe" hypoglycemia ([1]; baseline A1c <8.5%, p=0.001, unit not given): 21
- percentage time <54 mg/dL during Week 26 (median) ([1]; baseline A1c >8.5%, CGM, p=0.09): 2.6%
- change in total cholesterol ([1]; over the study): 7.3 mg/dL
- "life threatening" hypoglycemia events ([1]; whole study): No “life threatening” events were recorded
- ending HbA1c [2]: 7.08
- Time in Range (70-180 mg/dL), increase [3]: *No Change in Lispro Group
- Time in Target (70-140 mg/dL), increase [3]: *No Change in Lispro Group
